Laboratory results: ChEMBL document CHEMBL1201862, “PubChem BioAssay data set” (2004)
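Interpolation was linear, between the two tested concentrations surrounding the appropriate level; five concentrations were tested over 48 hours in 96-well plates. GI50 = concentration required for 50% inhibition of growth.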 Activity calls are given as the source filed them. Cut-off read from the data, not from the text of the source: active = GI50 up to about 1.1 µM and inactive = higher.

How the values were obtained:
Assay in all cases: growth of human tumour cells (NCI), 48 h
[1] = test system: RXF 393
[2] = test system: SK-MEL-28
[3] = test system: SNB-19
[4] = test system: MDA-MB-231
[5] = test system: KM12
[6] = test system: SF-295
[7] = test system: NCI-H226
[8] = test system: Hs-578T
[9] = test system: IGROV-1
[10] = test system: DU-145
[11] = test system: MCF7
[12] = test system: EKVX
[13] = test system: NCI/ADR-RES
[14] = test system: SR
[15] = test system: UO-31
[16] = test system: CCRF-CEM
[17] = test system: OVCAR-8
[18] = test system: U-251
[19] = test system: NCI-H522
[20] = test system: K562

SMILES	GI50 [1]	GI50 [2]	GI50 [3]	GI50 [4]	GI50 [5]	GI50 [6]	GI50 [7]	GI50 [8]	GI50 [9]	GI50 [10]	GI50 [11]	GI50 [12]	GI50 [13]	GI50 [14]	GI50 [15]	GI50 [16]	GI50 [17]	GI50 [18]	GI50 [19]	GI50 [20]
CCOC(C[Se]CC(OCC)OCC)OCC	28.4 µM (inactive)	49.4 µM (inactive)	48.8 µM (inactive)	52.5 µM (inactive)	53.2 µM (inactive)	26.1 µM (inactive)	21.5 µM (inactive)	14.9 µM (inactive)	24.1 µM (inactive)	37.5 µM (inactive)	48.3 µM (inactive)	> 100 µM (inactive)	50.9 µM (inactive)	> 100 µM (inactive)	38.6 µM (inactive)	33.4 µM (inactive)	27.2 µM (inactive)	14.6 µM (inactive)	> 100 µM (inactive)	> 100 µM (inactive)
N#CC(C(=O)/C(=N/Nc1nc(S)nn1N)C(C#N)c1ccccc1)c1ccccc1 (stereo not given)	> 100 µM (inactive)	> 100 µM (inactive)	> 100 µM (inactive)	> 100 µM (inactive)	> 100 µM (inactive)	> 100 µM (inactive)	> 100 µM (inactive)	> 100 µM (inactive)	> 100 µM (inactive)	> 100 µM (inactive)	> 100 µM (inactive)	> 100 µM (inactive)	> 100 µM (inactive)	> 100 µM (inactive)	> 100 µM (inactive)	> 100 µM (inactive)	> 100 µM (inactive)	> 100 µM (inactive)	> 100 µM (inactive)	> 100 µM (inactive)
Cc1cccc(N2C(=O)C3ON(C(C(N)=O)c4ccccc4)C(c4c5ccccc5c(Cl)c5ccccc45)C3C2=O)c1C (stereo not given)	5.66 µM (inactive)	13 µM (inactive)	8.85 µM (inactive)	9.42 µM (inactive)	1.85 µM (inactive)	9.66 µM (inactive)	7.13 µM (inactive)	16.6 µM (inactive)	11.6 µM (inactive)	10.4 µM (inactive)	7.64 µM (inactive)	9.23 µM (inactive)	10.9 µM (inactive)	1.69 µM (inactive)	16.4 µM (inactive)	2.55 µM (inactive)	9.84 µM (inactive)	8.02 µM (inactive)	10.5 µM (inactive)	12.7 µM (inactive)
CCOC(=O)NC(Nc1ccc(F)cc1F)(C(F)(F)F)C(F)(F)F	> 100 µM (inactive)	> 100 µM (inactive)	> 100 µM (inactive)	> 100 µM (inactive)	> 100 µM (inactive)	> 100 µM (inactive)	> 100 µM (inactive)	> 100 µM (inactive)	> 100 µM (inactive)	> 100 µM (inactive)	> 100 µM (inactive)	> 100 µM (inactive)	> 100 µM (inactive)	> 100 µM (inactive)	> 100 µM (inactive)	> 100 µM (inactive)	> 100 µM (inactive)	> 100 µM (inactive)	> 100 µM (inactive)	> 100 µM (inactive)
NCCSCCC(=O)O	> 66.7 µM (inactive)	37.9 µM (inactive)	> 94.8 µM (inactive)	> 100 µM (inactive)	> 82.8 µM (inactive)	> 48.4 µM (inactive)	> 100 µM (inactive)	> 100 µM (inactive)	> 100 µM (inactive)	> 52 µM (inactive)	> 57.1 µM (inactive)	> 100 µM (inactive)	> 69.8 µM (inactive)	14.4 µM (inactive)	> 100 µM (inactive)	23 µM (inactive)	> 84.3 µM (inactive)	> 44 µM (inactive)	> 66.1 µM (inactive)	31.8 µM (inactive)
COc1ccc2cc(CNCCCCCCCCNCc3ccc4cc(OC)ccc4c3)ccc2c1	8.07 µM (inactive)	5.78 µM (inactive)	4.1 µM (inactive)	13.7 µM (inactive)	3.92 µM (inactive)	5.3 µM (inactive)	14 µM (inactive)	8.77 µM (inactive)	5.21 µM (inactive)	6.97 µM (inactive)	4.27 µM (inactive)	6.87 µM (inactive)	6.65 µM (inactive)	1.12 µM (active)	6.78 µM (inactive)	2.54 µM (inactive)	6.61 µM (inactive)	3.66 µM (inactive)	4.37 µM (inactive)	0.975 µM (active)
N#Cc1cc2c(cc1Cl)Sc1nccn1S2(=O)=O	4.61 µM (inactive)	2.32 µM (inactive)	8.2 µM (inactive)	3.59 µM (inactive)	5.79 µM (inactive)	4.31 µM (inactive)	5.89 µM (inactive)	2.68 µM (inactive)	6.38 µM (inactive)	2.33 µM (inactive)	3.8 µM (inactive)	14.5 µM (inactive)	1.68 µM (inactive)	1 µM (active)	5.52 µM (inactive)	0.506 µM (active)	2.82 µM (inactive)	1.6 µM (inactive)	1.15 µM (inactive)	2.69 µM (inactive)
